Experimental data reported in patent US9045505B2, “Nitric oxide donors” (University of Otago, priority 2006, dated 2015).
pEC50: −log10 of the molar value.

Tests used:
rat thoracic aorta = test: Relaxation of pre-contracted rat thoracic aorta (myograph); conditions: for pEC50: pre-contracted rat thoracic aorta, read-out: EC50 blood vessel relaxation
Procedure: FIG. 16 is a series of graphs showing the vasodilatory and tissue protective effects of MitoSNAP. (a) Dose-response curves for the effect of MitoSNAP and related compounds on blood vessel relaxation. The effects of intact or decomposed MitoSNAP and SNAP on pre-contracted rat thoracic aorta mounted in a myograph were determined Data represent means±sem. For MitoSNAP n=8 from experiments on two independent rat aorta preparations. For decomposed MitoSNAP and SNAP experiments the data (n=4) are from one aorta preparation. (b) EC50 for the effect of MitoSNAP and SNAP on blood vessel relaxation. The EC50 values were determined from experiments shown in (a) above. ***p<0.001 by Student's unpaired t-test. (c & d) MitoSNAP protects against I/R injury in Langendorff-perfused mouse hearts. Hearts from C57BL6 mice were Langendorff perfused and subjected to 25 min global normothermic ischemia followed by 1 h of reperfusion. MitoSNAP or MitoNAP (100 nM final), or vehicle carrier, was added via an infusion port above the aortic cannula during reperfusion. Hearts were then stained with 2,3,5-triphenyltetrazolium chloride (TTC) to visualize infarct. (c) Protection of heart function by MitoSNAP during I/R injury. Left ventricular contractile function was recorded throughout the I/R protocol.
Sprague-Dawley rats (male 250-350 g) were anesthetized by intraperitoneal injection of ketamine and xylazine (100 and 16 mg/kg, respectively) and thoracic aortas were excized and placed in Krebs-Henseleit buffer (pH 7.3) at 37° C. […] The concentrations of MitoSNAP and SNAP were calculated using ε=950 M^−1.cm^−1 and 1168 M^−1.cm^−1 at 340-344 nm respectively in PBS supplemented with 10 μM DTPA.
The uptake of MitoSNAP into mitochondria within vascular tissue and the subsequent NO^• release may make MitoSNAP a potent vasodilator. This was evaluated by determining whether MitoSNAP could relax the smooth muscle in blood vessel walls. […]

Jurkat cells = test: Respiration of Jurkat cells (O2 electrode); format: cell-based; conditions: 5 μM; for effect on respiration by Jurkat cells: 37° C.
Procedure: FIG. 10 is a series of traces and graphs showing the effect of MitoSNAP on respiration in cells. (a-d) Jurkat cells (55×10^6 cells) were incubated in PBS supplemented with 25 mM Hepes pH 7.2 (NaOH), 1 mM sodium pyruvate, 10 μM neocuproine and 100 μM DTPA in the stirred 2.5 ml chamber of an oxygen electrode at 37° C. with 5 μM MitoSNAP (a), MitoNAP (b), SNAP (c) or MitoSNAP and FCCP (500 nM) (d). Where indicated 5 μM OxyHb was added. Traces show typical experiments that were repeated at least three times. Sections of the 02 electrode trace where OxyHb was added for (a) and (b) have been expanded 4-fold in the vertical dimension to facilitate inspection. In all traces the dashed line indicates anaerobiosis. (e) Effect of MitoSNAP on O2 bioavailability in hypoxia. HeLa cells were incubated at 1% O2 concentration with 5% CO2 and the balance N2 for […] before the indicated treatments. Cellular pO2 values, measured by fluorescence quenching oximetry and expressed as mean±sd, are shown. (**p<0.001 compared to hypoxia alone and to MitoNAP treatments by ANOVA).
Cell culture. Cells were grown in medium supplemented with 10% fetal calf serum (FCS), penicillin (100 U.ml^−1) and streptomycin (100 μg.ml^−1) at 37° C. in a humidified atmosphere of 95% air/5% CO2. Jurkat cells were cultured in Roswell park memorial institute (RPMI) 1640 medium supplemented with 2 mM Glutamax and 25 mM Hepes. HeLa cells were grown in minimum essential eagle medium (MEM) containing 2 mM glutamine and non-essential amino acids and were grown to 100% confluence prior to use. […]
To evaluate the selective uptake of MitoSNAP by mitochondria within cells, the effect of MitoSNAP on respiration by Jurkat cells, a T lymphocyte cell line that grows in suspension, was measured using an O2 electrode (FIG. 10). […] Then the effects of a further 30 min incubation with MitoSNAP, MitoNAP or the mitochondrial inhibitor myxathiazol on the steady-state extracellular pO2 was assessed by fluorescence quenching oximetry (FIG. 10e).

SMILES	pEC50 (rat thoracic aorta)	effect on respiration by Jurkat cells (Jurkat cells)	vasodilator effect after degradation of the SNO moiety (rat thoracic aorta; pretreated (light) to degrade SNO)	time for which a low O2 concentration was maintained (Jurkat cells; low O2 concentrations)
CC(=O)NC(C(=O)O)C(C)(C)SN=O (racemic) [SNAP, S-nitroso-N-acetyl-DL-penicillamine, reference compound]	7.71	had no effect on respiration	–	–
CC(=O)NC(C(=O)NCCCCC[P+](c1ccccc1)(c1ccccc1)c1ccccc1)C(C)(C)SN=O.CS(=O)(=O)[O-] (stereo not drawn) [MitoSNAP, [5-(2-acetylamino-3-methyl-3-nitrosothio-butyrylamino)-penty1]-triphenylphosphonium methanesulfonate]	8.35	respiration rate decreased and approached zero	ineffective	at least 30 min
